Experimental data as given in patent US20260193188A1, “CRYSTALLINE POLYMORPH FORMS OF A TRPV1 ANTAGONIST AND FORMULATIONS THEREOF” (Bausch + Lomb Ireland Limited, priority 2022, published 2026).
≈ marks a conversion by molar mass, not a printed value.

Experiments:
[1] = molecular target: T1, human TRPV1 (Homo sapiens, UniProt Q8NER1); test: FLIPR calcium assay to detect calcium influx in CHO-huTrpV1 cells (antagonism of NADA response); type: cell-based; conditions: stimulated with 2.5 μM NADA (EC80), FLIPR calcium 6, read-out: IC50, antagonist effect against human TRPV1
T1 construct: expressed in transfected cells; host or cells: CHO (Chinese Hamster Ovary) cells, geneticin-selected
Experimental: Chinese Hamster Ovary (CHO) cells transfected to express human TrpV1 receptor (which are herein referred to as CHO-huTrpV1 cells), were grown in F-12 Ham's Nutrient Mixture media (HyClone SH30026.01) supplemented with 10% Fetal Bovine Serum (Invitrogen #26140-079), 1% Antibiotic/antimycotic (Invitrogen #15240-062) and 500 μg/mL geneticin (ThermoFisher scientific #1031035). Cells were grown in T-75 flasks at 37° C. incubater with 5% CO2. The cells were passaged twice a week at a ratio of 1:10 to 1:20 to maintain steady growth. For experimentation, cells were harvarsted at approximately 80% confluency and plated onto 384 well black cell culture plates (cat #781091, Greinier Bio-One Inc.) at 15,000 cells per well in 20 μl media and grown overnight.
The loading dye was prepared following instruction of Calcium 6 assay kit ([…], #R8190): 10 ml buffer from bottle B was added to 1 vial of bottle A (adapted to room temperature from −20° C.) and mixed well, then 2.5 mM of fresh prepared probenecid was added and mixed well. 20 μl/well of loading dye was added on top of the cells, and incubated at 37° C. for 1 hour 30 min.
Assay buffer preparation: 1×HBSS, 2 mM HEPES, 0.1% BSA plus 2.5 mM freshly prepared probenecid (Invitrogen, #P36400). 25 μl/well assay buffer in 384 well clear plate (cat #782281, Greiner Bio-one) was dispensed with buffer distributor (Multidrop ComB1 from Thermo Scientific). The compounds were in 384 Echo plate (cat #LPL0200, Labcyte) and the starting concentration of compound was 10 mM, then 1 to 3 serial dilution in 100% DMSO, 8 ul/well). 125 nl compounds was transferred to the 384 well plate containing 25 μl/well buffer with Echo® 555 Liquid Handler (Labcyte), such that the compound concentration was 5 fold of final concentration. The plate was shook slowly at 40 rpm/min for 10 min to mix. […]
After compounds were added to the cell plate with loading dye, within 10-15 minutes, cell plate and plate containing NADA was placed into the FLIPR (Fluorescent Imaging Plate Reader) instrument (Tetra System, Molecular device). […]

[2] = Solubility in solvents; type: physicochemical; conditions: organic solvent or mixture
Experimental: Compound I is poorly soluble (between 1 and 25 mg/ml) in acetonitrile, dicholormethane, methyl-tert-butyl ether, nitromethane. In toluene and heptane, compound I is sparingly soluble (<1 mg/ml).

[3] = Hydrate formation on equilibration in aqueous fluid; type: physicochemical; conditions: equilibrated at 4° C. in water, methanol/water (33:67, 42:58), after 2 weeks and 4 weeks
[4] = Hygroscopicity by DVS; type: physicochemical
[5] = Solid form stability (humidity exposure, compression, grinding, granulation); type: physicochemical

T1 sequence (Q8NER1 whole entry): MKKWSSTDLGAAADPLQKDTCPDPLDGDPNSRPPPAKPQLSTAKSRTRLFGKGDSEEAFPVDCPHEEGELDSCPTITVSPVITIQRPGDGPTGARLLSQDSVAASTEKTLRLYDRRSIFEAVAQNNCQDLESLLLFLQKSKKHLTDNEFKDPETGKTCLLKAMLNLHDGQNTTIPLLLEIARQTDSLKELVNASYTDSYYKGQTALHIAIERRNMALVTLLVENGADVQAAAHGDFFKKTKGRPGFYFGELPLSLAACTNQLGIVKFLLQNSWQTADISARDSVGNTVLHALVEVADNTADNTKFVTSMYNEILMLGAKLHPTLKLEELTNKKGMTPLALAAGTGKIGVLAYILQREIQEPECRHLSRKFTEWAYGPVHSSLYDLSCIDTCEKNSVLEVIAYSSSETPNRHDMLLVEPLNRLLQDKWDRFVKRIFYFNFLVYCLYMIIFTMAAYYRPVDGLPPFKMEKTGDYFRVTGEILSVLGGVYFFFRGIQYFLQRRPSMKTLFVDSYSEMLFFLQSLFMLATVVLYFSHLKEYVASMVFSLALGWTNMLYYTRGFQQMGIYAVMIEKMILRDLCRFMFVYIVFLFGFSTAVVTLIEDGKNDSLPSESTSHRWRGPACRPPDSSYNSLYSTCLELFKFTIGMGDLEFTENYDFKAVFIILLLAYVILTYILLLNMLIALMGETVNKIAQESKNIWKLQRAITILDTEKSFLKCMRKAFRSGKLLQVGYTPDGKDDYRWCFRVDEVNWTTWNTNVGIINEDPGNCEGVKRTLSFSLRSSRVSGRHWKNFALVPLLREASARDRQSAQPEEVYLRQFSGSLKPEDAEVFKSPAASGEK

OCC(O)c1cc(F)c(CN[C@H]2C[C@H](Oc3ccc(F)c(C(F)(F)F)c3)C2)c2ccncc12 (mixture of isomers) [Example 1 (mixture of isomers), 1-(6-fluoro-5-((((1r,3r)-3-(4-fluoro-3-(trifluoromethyl)phenoxy)cyclobutyl)amino)methyl)isoquinolin-8-yl)ethane-1,2-diol]
IC50 [1]: 10.4 nM

OC[C@@H](O)c1cc(F)c(CN[C@H]2C[C@H](Oc3ccc(F)c(C(F)(F)F)c3)C2)c2ccncc12 (single isomer, unassigned)
IC50 [1]: 0.62 nM
solubility ([2]; organic solvents and alcohol/water mixtures, acetone, 1,4-dioxane, ethanol, ethyl acetate, isopropyl acetate, methanol, 2-methyl-2-butanol, tetrahydrofuran, 1-propanol/water (98.5:1.5), 2-propanol/water (96:4), methanol/water (78:22)): > 25 mg/mL
solubility ([2]; organic solvents, acetonitrile, dicholormethane, methyl-tert-butyl ether, nitromethane): 1 to 25 mg/mL (≈ 2.13 to 53.4 mM)
solubility ([2]; organic solvents, toluene and heptane): < 1 mg/mL
Hydrate formation [3]: not observed to form a hydrate

OC[C@H](O)c1cc(F)c(CN[C@H]2C[C@H](Oc3ccc(F)c(C(F)(F)F)c3)C2)c2ccncc12 [(R)-1-(6-fluoro-5-((((1r,3R)-3-(4-fluoro-3-(trifluoromethyl)phenoxy)cyclobutyl)amino)methyl)isoquinolin-8-yl)ethane-1,2-diol]
IC50 [1]: 6.3 nM

OC[C@@H](O)c1cc(F)c(CN[C@H]2C[C@H](Oc3ccc(F)c(C(F)(F)F)c3)C2)c2ccncc12 [Compound I Form A, (S)-1-(6-fluoro-5-((((1r,3S)-3-(4-fluoro-3-(trifluoromethyl)phenoxy)cyclobutyl)amino)methyl)isoquinolin-8-yl)ethane-1,2-diol]
Hygroscopicity by DVS ([4]; DVS): slightly hygroscopic
Solid state change after DVS ([4]; DVS up to 95% RH): no change in solid state
Water vapor absorbed ([4]; DVS, at 95% RH): approximately 0.4%
Change after humidity exposure ([5]; 92% RH for 24 h): did not result in change
Form change after compression ([5]; compression, only minor peak broadening): no form change
Form change under grinding and granulation ([5]; dry grinding and wet granulation with water and ethanol (XRPD, FIG. 4)): did not show form change
